pIC50: −log10 of the molar value. Like-named read-outs stand apart in the source and are kept apart here.
Experiments:
NEK2 = biological target: T1, NEK2 (Homo sapiens, UniProt P51955); experiment: Kinase activity test (ReactionBiology), % enzyme activity relative to DMSO; format: biochemical; settings: NEK2;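 further: FDA-approved drugs chosen by structure-based repositioning, each screened at 10 or 1 µM for kinase activity, expressed as percent of DMSO controls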
T1 construct: purchased ReactionBiology
T1 sequence (P51955 1-445): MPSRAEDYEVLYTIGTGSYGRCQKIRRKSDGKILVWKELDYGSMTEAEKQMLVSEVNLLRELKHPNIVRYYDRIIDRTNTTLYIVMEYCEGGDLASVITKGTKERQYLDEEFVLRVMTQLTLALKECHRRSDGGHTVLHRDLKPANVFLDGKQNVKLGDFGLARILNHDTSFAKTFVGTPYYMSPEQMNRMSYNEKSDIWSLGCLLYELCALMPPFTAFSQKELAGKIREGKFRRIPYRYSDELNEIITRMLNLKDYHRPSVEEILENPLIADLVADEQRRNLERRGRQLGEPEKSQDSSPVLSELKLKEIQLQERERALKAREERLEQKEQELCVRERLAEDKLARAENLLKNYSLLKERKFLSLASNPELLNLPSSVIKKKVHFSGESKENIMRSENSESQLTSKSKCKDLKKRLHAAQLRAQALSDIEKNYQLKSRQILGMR

DAPK1 = biological target: T2, DAPK1 (Homo sapiens, UniProt P53355); experiment: as above; format: biochemical; settings: DAPK1
T2 construct: purchased ReactionBiology

CK1d = biological target: T3, CK1d (Homo sapiens, UniProt P48730); experiment: as above; format: biochemical; settings: CK1d
T3 construct: purchased ReactionBiology

EPHB4 = biological target: T4, EPHB4 (Homo sapiens, UniProt P54760); experiment: as above; format: biochemical; settings: EPHB4;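 further: EPHB4 was one of ten selected kinases in the screening panel, with enzyme activity expressed as a percentage of DMSO controls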
T4 construct: purchased ReactionBiology
T4 sequence (P54760 16-987): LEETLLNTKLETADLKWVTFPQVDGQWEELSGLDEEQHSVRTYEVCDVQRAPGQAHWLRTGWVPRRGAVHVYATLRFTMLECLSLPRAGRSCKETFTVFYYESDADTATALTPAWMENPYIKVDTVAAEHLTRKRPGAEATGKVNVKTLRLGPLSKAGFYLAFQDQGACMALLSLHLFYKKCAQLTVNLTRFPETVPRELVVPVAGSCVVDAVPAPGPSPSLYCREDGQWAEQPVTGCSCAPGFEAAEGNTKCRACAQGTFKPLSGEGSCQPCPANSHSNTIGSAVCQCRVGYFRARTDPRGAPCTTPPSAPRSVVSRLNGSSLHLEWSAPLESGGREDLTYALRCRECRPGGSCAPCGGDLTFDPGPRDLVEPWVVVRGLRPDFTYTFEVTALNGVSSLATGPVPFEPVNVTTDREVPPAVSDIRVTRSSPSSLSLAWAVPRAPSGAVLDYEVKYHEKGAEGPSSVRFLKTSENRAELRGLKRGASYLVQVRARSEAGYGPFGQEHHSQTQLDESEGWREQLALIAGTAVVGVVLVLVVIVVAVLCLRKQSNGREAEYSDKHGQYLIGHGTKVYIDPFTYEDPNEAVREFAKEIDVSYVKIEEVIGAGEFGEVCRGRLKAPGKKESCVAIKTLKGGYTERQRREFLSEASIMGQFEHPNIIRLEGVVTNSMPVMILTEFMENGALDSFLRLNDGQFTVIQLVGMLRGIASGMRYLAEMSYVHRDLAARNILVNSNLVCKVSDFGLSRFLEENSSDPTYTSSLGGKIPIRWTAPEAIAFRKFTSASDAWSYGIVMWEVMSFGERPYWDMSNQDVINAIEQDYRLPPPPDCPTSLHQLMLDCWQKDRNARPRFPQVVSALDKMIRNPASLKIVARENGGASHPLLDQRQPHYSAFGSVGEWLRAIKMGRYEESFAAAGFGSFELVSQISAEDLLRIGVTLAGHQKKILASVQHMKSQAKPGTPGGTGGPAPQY

MAP2K2 = biological target: T5, MAP2K2 (Homo sapiens, UniProt P36507); experiment: as above; format: biochemical; settings: MEK2
T5 construct: purchased ReactionBiology

human CD19+ B cells = experiment: B-cell assay: IgG production of ODN2006-stimulated primary B cells (AlphaLISA); format: cell-based; settings: Homo sapiens, B-cell, 168 h; IgG production, ODN2006 0.1 μM, 7 days; mean of 4 independent experiments; read-out: B-cell IC50
[1] = test system: human PBMCs (responder cells) with RPMI1788 stimulator cells; experiment: Mixed Lymphocyte Reaction (MLR, T cell assay), 3H-thymidine incorporation; format: cell-based; settings: Homo sapiens, RPMI-1788; mean of 4 independent measures; read-out: T-cell efficacy, MLR IC 50 (µM) Mean
[2] = WST-1 cytotoxicity assay on RPMI1788 cells (B-cell line); format: cell-based, human; settings: human, RPMI1788 cells (B-cell line), mean of 4 independent measures, read-out: Cytotoxicity, WST-1 RPMI 1788 IC 50 (µM) Mean
[3] = WST-1 cytotoxicity assay on Jurkat cells (T-cell line); format: cell-based, human; settings: human, Jurkat cells (T-cell line), mean of 4 independent measures, read-out: Cytotoxicity, WST-1 Jurkat IC 50 (µM) Mean
Method: Compounds were prepared as 10 mM stock solutions in dimethylsulfoxide (DMSO)and were tested at 50-10-1-0.1-0.01 and 0.001 μM in the 4 assays.
The human B cell line RPMI1788 (American Type Culture Collection, USA) and the human T cell line Jurkat (European Collection of Cell Cultures, ECACC, England) were maintained in RPMI1640 culture medium (BioWhittaker®, Lonza, Verviers, Belgium) containing 10% foetal calf serum (FCS, HyClone® Thermo Scientific, United Kingdom) and 5 μg/mL gentamicin sulphate (BioWhittaker®, Lonza, Verviers, Belgium) at 37°C and 5% CO2.
WST-1 assays on RPMI-1788 cells and Jurkat cells were performed as follows: 20 μL of test compound dilution were added to each well containing exponential growing cells and the plates were incubated for 48 h at 37°C, 5% CO2. Untreated cells and positive control (1% triton X-100, for the last 15 min) served as reference for maximum and minimum viability. At the end of incubation 100 μL of supernatant were removed and replaced by 10 μL of WST-1 solution (Cell Proliferation Reagent WST-1, Roche Applied Science).

VEGFR2 = VEGFR2 (Homo sapiens, UniProt P35968); experiment: Kinase activity test (ReactionBiology), % enzyme activity relative to DMSO; format: biochemical; set-up: purchased ReactionBiology; settings: VEGFR2;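 further: VEGFR2 was one member of a ten-kinase screening panel testing marketed FDA-approved drugs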
[4] = 1 uM, Average, read-out: % Enzyme Activity (relative to DMSO controls), Average
[5] = 1 uM, replicate Data 1, read-out: % Enzyme Activity (relative to DMSO controls), Data 1
[6] = 1 uM, replicate Data 2, read-out: % Enzyme Activity (relative to DMSO controls), Data 2
[7] = 10 uM, Average, read-out: % Enzyme Activity (relative to DMSO controls), Average
[8] = 10 uM, replicate Data 1, read-out: % Enzyme Activity (relative to DMSO controls), Data 1
[9] = 10 uM, replicate Data 2, read-out: % Enzyme Activity (relative to DMSO controls), Data 2
[10] = compound 1μM, relative to DMSO controls, read-out: % Enzyme activity at 1μM
[11] = compound 10μM, relative to DMSO controls, read-out: % Enzyme activity at 10μM
[12] = Average, read-out: % Enzyme Activity (relative to DMSO controls), Average
[13] = replicate Data 1, read-out: % Enzyme Activity (relative to DMSO controls), Data 1
[14] = replicate Data 2, read-out: % Enzyme Activity (relative to DMSO controls), Data 2

T2 sequence (P53355 whole entry): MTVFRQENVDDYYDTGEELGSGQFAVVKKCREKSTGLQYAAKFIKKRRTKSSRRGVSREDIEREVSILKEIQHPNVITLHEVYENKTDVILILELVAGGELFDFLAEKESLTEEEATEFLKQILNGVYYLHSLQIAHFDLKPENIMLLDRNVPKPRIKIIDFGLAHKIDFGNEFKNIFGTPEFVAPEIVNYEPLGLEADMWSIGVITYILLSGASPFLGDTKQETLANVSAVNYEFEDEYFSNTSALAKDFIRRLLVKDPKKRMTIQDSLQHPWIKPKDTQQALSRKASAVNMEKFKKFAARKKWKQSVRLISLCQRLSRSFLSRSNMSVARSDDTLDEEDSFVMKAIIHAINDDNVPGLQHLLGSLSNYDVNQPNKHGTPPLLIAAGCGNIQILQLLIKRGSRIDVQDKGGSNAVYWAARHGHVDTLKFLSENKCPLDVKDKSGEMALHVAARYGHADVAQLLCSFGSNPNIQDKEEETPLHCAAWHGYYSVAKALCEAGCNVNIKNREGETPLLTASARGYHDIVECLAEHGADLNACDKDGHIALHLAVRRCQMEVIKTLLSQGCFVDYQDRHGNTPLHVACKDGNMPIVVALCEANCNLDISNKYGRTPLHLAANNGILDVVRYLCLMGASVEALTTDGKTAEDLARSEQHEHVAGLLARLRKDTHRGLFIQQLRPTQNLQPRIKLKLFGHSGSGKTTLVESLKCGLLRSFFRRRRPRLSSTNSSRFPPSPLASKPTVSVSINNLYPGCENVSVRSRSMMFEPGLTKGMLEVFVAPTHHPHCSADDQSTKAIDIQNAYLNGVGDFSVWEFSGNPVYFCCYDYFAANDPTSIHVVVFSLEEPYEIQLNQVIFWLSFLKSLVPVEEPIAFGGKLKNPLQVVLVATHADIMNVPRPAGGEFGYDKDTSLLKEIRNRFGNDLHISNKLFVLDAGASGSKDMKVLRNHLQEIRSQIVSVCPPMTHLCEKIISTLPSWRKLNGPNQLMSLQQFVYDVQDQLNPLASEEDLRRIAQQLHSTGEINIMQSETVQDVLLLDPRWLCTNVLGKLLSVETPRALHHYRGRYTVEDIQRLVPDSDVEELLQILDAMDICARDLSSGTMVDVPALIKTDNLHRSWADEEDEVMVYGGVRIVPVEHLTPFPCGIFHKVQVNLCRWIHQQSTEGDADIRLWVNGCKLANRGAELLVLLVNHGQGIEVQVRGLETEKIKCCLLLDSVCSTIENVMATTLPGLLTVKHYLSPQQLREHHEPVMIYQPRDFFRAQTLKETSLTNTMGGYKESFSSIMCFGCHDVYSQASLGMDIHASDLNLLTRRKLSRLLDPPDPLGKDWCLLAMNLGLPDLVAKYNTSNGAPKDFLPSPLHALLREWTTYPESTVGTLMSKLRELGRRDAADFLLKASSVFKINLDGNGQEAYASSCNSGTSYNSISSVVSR
T3 sequence (P48730 whole entry): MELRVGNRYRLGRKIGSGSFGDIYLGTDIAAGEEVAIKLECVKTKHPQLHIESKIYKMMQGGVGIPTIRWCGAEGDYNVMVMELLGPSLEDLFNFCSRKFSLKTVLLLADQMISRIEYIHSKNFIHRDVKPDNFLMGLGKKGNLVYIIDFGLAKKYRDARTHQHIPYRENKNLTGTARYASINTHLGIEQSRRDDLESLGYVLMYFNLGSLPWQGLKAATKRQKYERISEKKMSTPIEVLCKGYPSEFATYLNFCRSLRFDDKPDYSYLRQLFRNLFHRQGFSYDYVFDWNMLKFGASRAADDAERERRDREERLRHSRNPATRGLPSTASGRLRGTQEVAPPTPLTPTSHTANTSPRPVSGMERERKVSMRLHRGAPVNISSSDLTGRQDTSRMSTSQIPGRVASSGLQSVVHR
Chain of VEGFR2 (P35968 20-1356): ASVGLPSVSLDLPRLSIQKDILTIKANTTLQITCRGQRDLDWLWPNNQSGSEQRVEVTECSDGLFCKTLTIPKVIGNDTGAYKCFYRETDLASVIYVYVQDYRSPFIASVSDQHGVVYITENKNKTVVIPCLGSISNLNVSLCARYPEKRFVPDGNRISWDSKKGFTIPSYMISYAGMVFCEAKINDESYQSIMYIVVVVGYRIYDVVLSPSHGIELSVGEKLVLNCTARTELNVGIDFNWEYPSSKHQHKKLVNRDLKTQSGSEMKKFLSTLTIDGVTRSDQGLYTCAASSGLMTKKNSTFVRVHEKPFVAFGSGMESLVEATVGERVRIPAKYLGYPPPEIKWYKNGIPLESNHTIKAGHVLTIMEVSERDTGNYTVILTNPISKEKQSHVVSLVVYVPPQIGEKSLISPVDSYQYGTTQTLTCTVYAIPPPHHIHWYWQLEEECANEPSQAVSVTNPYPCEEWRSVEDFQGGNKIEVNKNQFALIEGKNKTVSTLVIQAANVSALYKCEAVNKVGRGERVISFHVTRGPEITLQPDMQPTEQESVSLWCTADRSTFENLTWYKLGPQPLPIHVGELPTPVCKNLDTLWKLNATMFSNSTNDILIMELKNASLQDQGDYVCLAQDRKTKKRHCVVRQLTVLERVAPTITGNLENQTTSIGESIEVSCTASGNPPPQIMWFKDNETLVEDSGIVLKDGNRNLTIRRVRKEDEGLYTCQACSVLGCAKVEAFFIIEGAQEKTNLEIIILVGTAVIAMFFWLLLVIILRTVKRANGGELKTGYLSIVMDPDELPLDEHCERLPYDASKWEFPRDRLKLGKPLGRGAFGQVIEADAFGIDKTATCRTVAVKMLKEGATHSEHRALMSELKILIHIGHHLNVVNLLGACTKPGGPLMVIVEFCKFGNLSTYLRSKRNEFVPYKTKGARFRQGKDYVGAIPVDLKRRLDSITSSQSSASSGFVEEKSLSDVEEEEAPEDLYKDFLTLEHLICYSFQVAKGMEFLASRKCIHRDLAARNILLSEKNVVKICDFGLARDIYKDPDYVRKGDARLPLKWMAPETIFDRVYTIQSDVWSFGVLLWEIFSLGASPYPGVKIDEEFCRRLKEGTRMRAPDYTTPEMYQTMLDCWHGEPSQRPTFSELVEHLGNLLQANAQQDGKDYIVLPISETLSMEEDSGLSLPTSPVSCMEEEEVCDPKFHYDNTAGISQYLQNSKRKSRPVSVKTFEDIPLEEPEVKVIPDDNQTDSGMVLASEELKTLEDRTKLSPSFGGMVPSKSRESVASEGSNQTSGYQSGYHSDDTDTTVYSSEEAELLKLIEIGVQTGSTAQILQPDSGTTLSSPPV
T5 sequence (P36507 whole entry): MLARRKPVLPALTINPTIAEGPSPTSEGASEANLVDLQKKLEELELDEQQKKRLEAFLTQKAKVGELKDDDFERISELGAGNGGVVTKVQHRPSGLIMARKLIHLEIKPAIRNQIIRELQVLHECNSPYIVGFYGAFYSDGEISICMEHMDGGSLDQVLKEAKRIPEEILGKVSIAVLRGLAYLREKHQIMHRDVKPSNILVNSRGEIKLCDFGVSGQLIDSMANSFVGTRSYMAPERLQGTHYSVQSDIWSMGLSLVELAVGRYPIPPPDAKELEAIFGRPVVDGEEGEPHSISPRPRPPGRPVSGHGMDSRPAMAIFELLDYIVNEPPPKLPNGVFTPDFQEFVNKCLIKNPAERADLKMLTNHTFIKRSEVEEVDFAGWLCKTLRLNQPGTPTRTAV

remaining activity at 1 µM (NEK2; [4]): 79.9% | remaining activity at 1 µM (NEK2; [5]): 73.6% | remaining activity at 1 µM (NEK2; [6]): 86.1% | remaining activity at 10 µM (NEK2; [7]): 71.7% | remaining activity at 10 µM (NEK2; [8]): 77.2% | remaining activity at 10 µM (NEK2; [9]): 66.2% | remaining activity at 1 µM (NEK2; [10]): 96.1% | remaining activity at 10 µM (NEK2; [11]): 59% | remaining activity at 1 µM (DAPK1; [12]): 99.3% | remaining activity at 1 µM (DAPK1; [13]): 103% | remaining activity at 1 µM (DAPK1; [14]): 95.9% | remaining activity at 10 µM (DAPK1; [12]): 81.1% | remaining activity at 10 µM (DAPK1; [13]): 80.8% | remaining activity at 10 µM (DAPK1; [14]): 81.4% | remaining activity at 1 µM (CK1d; [4]): 87.7% | remaining activity at 1 µM (CK1d; [5]): 86.5% | remaining activity at 1 µM (CK1d; [6]): 88.9% | remaining activity at 10 µM (CK1d; [7]): 50.2% | remaining activity at 10 µM (CK1d; [8]): 51.1% | remaining activity at 10 µM (CK1d; [9]): 49.4% | remaining activity at 1 µM (CK1d; [10]): 87.7% | remaining activity at 10 µM (CK1d; [11]): 50.2% | remaining activity at 1 µM (EPHB4; [12]): 101% | remaining activity at 1 µM (EPHB4; [13]): 100% | remaining activity at 1 µM (EPHB4; [14]): 102% | remaining activity at 10 µM (EPHB4; [12]): 85.4% | remaining activity at 10 µM (EPHB4; [13]): 84.1% | remaining activity at 10 µM (EPHB4; [14]): 86.8% | remaining activity at 1 µM (MAP2K2; [12]): 96.1% | remaining activity at 1 µM (MAP2K2; [13]): 96.6% | remaining activity at 1 µM (MAP2K2; [14]): 95.7% | remaining activity at 10 µM (MAP2K2; [12]): 59% | remaining activity at 10 µM (MAP2K2; [13]): 60.6% | remaining activity at 10 µM (MAP2K2; [14]): 57.4% | pIC50 (human CD19+ B cells): < 4.30 | remaining activity at 1 µM (VEGFR2; [12]): 111% | remaining activity at 1 µM (VEGFR2; [13]): 111% | remaining activity at 1 µM (VEGFR2; [14]): 111% | remaining activity at 10 µM (VEGFR2; [12]): 98.3% | remaining activity at 10 µM (VEGFR2; [13]): 98.4% | remaining activity at 10 µM (VEGFR2; [14]): 98.2%
SMILES: Nc1ncnc2c1ncn2[C@@H]1O[C@H](CO)[C@@H](O)[C@H]1O [Adenosine, reference compound]
IC50 [1]: > 50 µM | IC50 at 48 h [2]: > 50 µM | IC50 at 48 h [3]: > 50 µM

Reference: paper PMC7252619 (PLoS ONE, 2020)
